Experiment [1] addresses T1, N. fowleri S-adenosyl-L-homocysteine hydrolase (NfSAHH) (Naegleria fowleri, UniProt A0A1Z0YU84).
T1 construct: gene NF0035640; N-terminal His tag (vector pBG1861), E. coli BL21(DE3)R3 Rosetta; 472 residues; homo-tetramer in asymmetric unit
T1 sequence (A0A1Z0YU84 1-472): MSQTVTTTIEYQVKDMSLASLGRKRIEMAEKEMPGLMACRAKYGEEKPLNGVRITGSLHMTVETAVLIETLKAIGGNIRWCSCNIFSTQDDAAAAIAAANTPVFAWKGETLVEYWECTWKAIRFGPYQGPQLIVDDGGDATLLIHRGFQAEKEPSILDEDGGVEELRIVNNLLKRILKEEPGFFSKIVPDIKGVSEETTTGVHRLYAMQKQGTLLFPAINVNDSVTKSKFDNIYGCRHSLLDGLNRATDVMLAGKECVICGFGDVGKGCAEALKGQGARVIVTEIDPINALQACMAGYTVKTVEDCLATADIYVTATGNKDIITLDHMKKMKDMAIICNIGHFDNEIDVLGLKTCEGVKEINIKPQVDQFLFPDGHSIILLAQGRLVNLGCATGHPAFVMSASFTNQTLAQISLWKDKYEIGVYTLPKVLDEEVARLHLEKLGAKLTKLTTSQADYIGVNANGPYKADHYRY
As to the kind of experiment: X-ray crystal structure. The class given is binding.

For experiment [2], the target named is T2, N. fowleri peptidylprolyl isomerase (NfPPI) (Naegleria fowleri, UniProt A0A2H4A315).
T2 construct: gene NF0084240; N-terminal His tag (vector pBG1861), E. coli BL21(DE3)R3 Rosetta; 119 residues; FKBP family; chains A-D in crystal
T2 sequence (A0A2H4A315 1-119): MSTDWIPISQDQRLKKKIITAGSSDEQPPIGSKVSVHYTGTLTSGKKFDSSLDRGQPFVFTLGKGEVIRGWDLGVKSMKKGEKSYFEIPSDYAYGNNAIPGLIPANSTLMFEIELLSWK
As to the kind of experiment: X-ray crystal structure. In kind it is binding. As to conditions: active site; Fig 4C legend calls the 6MKE ligand FK506-AN.

Drawing on publication PMC7990177, “Naegleria fowleri: Protein structures to facilitate drug discovery for the deadly, pathogenic free-living amoeba” (PLoS ONE, 2021), this text covers X-ray crystal structure for three compounds.

With `NC(=O)c1ccc[n+]([C@@H]2O[C@H](COP(=O)(O)OP(=O)(O)OC[C@H]3O[C@@H](n4cnc5c(N)ncnc54)[C@H](O)[C@@H]3O)[C@@H](O)[C@H]2O)c1` [NAD], the X-ray crystal structure result in experiment [1] (with adenosine, 2.0 Å omit map shown) was “contains the adenosine substrate and NAD cofactors bound to the active site”.

For `Nc1ncnc2c1ncn2[C@@H]1O[C@H](CO)[C@@H](O)[C@H]1O` [adenosine], in experiment [1] (with NAD, active site, closed conformation), the X-ray crystal structure entry is “contains the adenosine substrate and NAD cofactors bound to the active site”.

`C=CC[C@@H]1/C=C(\C)C[C@H](C)C[C@H](OC)[C@H]2O[C@@](O)(C(=O)C(=O)N3CCCC[C@H]3C(=O)O[C@H](/C(C)=C/[C@@H]3CC[C@@H](O)[C@H](OC)C3)[C@H](C)[C@@H](O)CC1=O)[C@H](C)C[C@@H]2OC` [FK506]: in experiment [2], the X-ray crystal structure result is on record as “Quaternary structure of NfPPI (6MKE)”.
